Reference: patent publication US20250032438A1, “METHOD FOR ALLEVIATING OXIDATIVE STRESS” (Nissui Corporation, priority 2021, published 2025)

Assays:
[1] = test system: Human alveolar epithelial cells; assay: Example 2: effect of protection from oxidative stress (CCK8 survival after 800 μM hydrogen peroxide); assay type: cell-based; conditions: 24 h pre-incubation, 800 μM hydrogen peroxide 8 h, FIG. 2
Description: Human alveolar epithelial cells were seeded on a 96-well microplate at 8×10^3/well, and cultured overnight at 37° C. and 5% CO2. […] The medium was removed by suction, and then exchanged for a medium containing 800 μM hydrogen peroxide, followed by incubation at 37° C. and 5% CO2 for 8 hours. CCK8 (DOJINDO LABORATORIES) was added to each well, and the absorbance of the sample at 450 nm after 1.5 hours was measured. The relative survival rate of each treatment section was calculated, where the absorbance value of a well without hydrogen peroxide treatment was 1. • Test section 1: control • Test section 2: hydrogen peroxide • Test section 3: 10 μM arachidonic acid (C20:4n-6) ethyl ester+hydrogen peroxide • Test section 4: 30 μM arachidonic acid (C20:4n-6) ethyl ester+hydrogen peroxide • Test section 5: 10 μM C32:4n-6 ethyl ester+hydrogen peroxide • Test section 6: 30 μM C32:4n-6 ethyl ester+hydrogen peroxide

[2] = test system: Human retinal pigment epithelial cells; assay: Example 3: effect of protection from oxidative stress (CCK8 survival after 300 μM hydrogen peroxide); assay type: cell-based; conditions: compared to the non-treatment condition or arachidonic acid (C20:4n-6) ethyl ester at the same treatment concentration (10 or 30 μM); 24 h pre-incubation, 300 μM hydrogen peroxide 24 h; FIG. 3
Description: The medium was removed by suction, and then exchanged for a medium containing 300 μM hydrogen peroxide, followed by incubation at 37° C. and 5% CO2 for 24 hours. CCK8 (DOJINDO LABORATORIES) was added to each well, and the absorbance of the sample at 450 nm after 1.5 hours was measured.

[3] = test system: Human retinal pigment epithelial cells; assay: Example 4: effect of protection from oxidative stress (CCK8 survival after hydrogen peroxide); assay type: cell-based; conditions: compared to the non-treatment condition or eicosapentaenoic acid (C20:5n-3) ethyl ester at the same treatment concentration (10 or 30 μM); 24 h pre-incubation, hydrogen peroxide 24 h; FIG. 4
Description: The medium was removed by suction, and then exchanged for a medium containing […] hydrogen peroxide, followed by incubation at 37° C. and 5% CO2 for 24 hours. CCK8 (DOJINDO LABORATORIES) was added to each well, and the absorbance of the sample at 450 nm after 1.5 hours was measured. The relative survival rate of each treatment section was calculated, where the absorbance value of a well without hydrogen peroxide treatment was 1. • Test section 1: control • Test section 2: hydrogen peroxide • Test section 3: 10 μM eicosapentaenoic acid […] ethyl ester+hydrogen peroxide • Test section 4: 30 μM eicosapentaenoic acid […] ethyl ester+hydrogen peroxide • Test section 5: 10 μM C34:5n-3 ethyl ester+hydrogen peroxide • Test section 6: 30 μM C34:5n-3 ethyl ester+hydrogen peroxide

[4] = test system: Human alveolar epithelial cells; conditions: 800 μM hydrogen peroxide for 1 hour, compared to non-treatment section; FIG. 1
Description: Human alveolar epithelial cells were seeded on a 96-well microplate at 1.5×10^4/well, and cultured overnight at 37° C. and 5% CO2. The medium was removed by suction, and exchanged for a medium containing 40 μM DCFH-DA (Wako Pure Chemical Industries, Ltd.), followed by incubation for 30 minutes. […] The fluorescence intensity at each of 485 nm in excitation and 538 nm in emission was measured with a fluorescence plate reader.

[5] = compared to the section treated with hydrogen peroxide alone, 10 or 30 μM

## CCCCC/C=C\C/C=C\C/C=C\C/C=C\CCCCCCCCCCCCCCCC(=O)OCC [C32:4n-6 ethyl ester]
[1]; compared to arachidonic acid (C20:4n-6) ethyl ester at the same treatment concentration (10 or 30 μM)
  relative cell survival rate after hydrogen peroxide treatment: significantly higher
[1]; [5]
  relative cell survival rate after hydrogen peroxide treatment: significantly higher
[2]
  relative cell survival rate after hydrogen peroxide treatment: significantly higher

## CCC=CCC=CCC=CCC=CCC=CCCCCCCCCCCCCCCCCCC(=O)OCC [C34:5n-3 ethyl ester]
[3]
  relative cell survival rate after hydrogen peroxide treatment: significantly higher

## CCCCC/C=C\C/C=C\C/C=C\C/C=C\CCCC(=O)OCC [arachidonic acid (C20:4n-6) ethyl ester, reference compound]
[1]; [5]
  relative cell survival rate after hydrogen peroxide treatment: significantly lower

## OO [hydrogen peroxide]
[4]
  relative production amount of ROS (reactive oxygen species): significantly larger
